From publication PMC11856857, “Protease-Resistant, Broad-Spectrum Antimicrobial Peptides with High Antibacterial and Antifungal Activity” (Life, 2025)
Converted amounts (≈) assume the structure as drawn. Where a SMILES comes first, the peptide text is derived from it.

What was measured:
[1] = system: C. albicans ATCC 10231; assay type: cell-based, Candida albicans
[2] = system: HaCaT cell line; assay type: cell-based, human; conditions: 24 h
Method: (§1) 3T3 and HaCaT cells were grown in DMEM consisting of 1% pen/strep and 10% FBS. A total of 5 × 10^4 cells were loaded into each well of a 96-well plate and incubated at 37 °C using a 5% CO2 incubator. All samples were measured in triplicate between 0.5–32 µg/mL concentrations and incubated at 37 °C for 24 h in a 5% CO2 incubator. Only cells and Mag-2 were used as negative and positive controls, respectively. After 24 h, cell cytotoxicity was evaluated using a cell proliferation kit (MTT, Roche, Basel, Switzerland) following the kit protocol and analyzed at 550 nm and 690 nm using a microplate reader (Gen5 Synergy HT BioTek). The concentration of peptides that killed 50% of the cells was determined as the IC50 in the cytotoxicity experiments.

[3] = system: 3t3 cell line; assay type: cell-based, mouse; conditions: 24 h
Method: as §1

[4] = molecular target: T1, proteinase K (Parengyodontium album, UniProt P06873); assay: Stability toward enzymatic degradation (protease resistance assay); assay type: in vitro ADME; conditions: peptide 1 mg/mL in TBS (50 mM Tris, 150 mM NaCl, pH 7.6) with 10% DMSO, proteinase K 1 mg/mL (30 U/mg), 37 °C, overnight (also 10 min, 30 min), HPLC at 214 nm
T1 construct: purchased Qiagen
Method: Peptide solutions were prepared at a final concentration of 1 mg/mL in TBS buffer (50 mM Tris, 150 mM NaCl, pH 7.6) including 10% DMSO. The proteinase K solution was adjusted to 1 mg/mL (enzyme activity = 30 U/mg). The peptide solution was then incubated at 37 °C overnight in an orbital shaker. After incubation, the reaction was blocked by adding 1% TFA (100 µL) in water. Peptide solutions with/without the proteinase K enzyme were analyzed at 214 nm using HPLC with an analytic column (AdvanceBio Peptide Plus, 2.1 × 150 mm, 2.7 µm, LC column, Agilent Technologies, Santa Clara, CA, USA) following the linear gradient method (30 min in a range of 5–80% acetonitrile including 0.025% TFA). MIC experiments were repeated to measure biological activities after treating the peptides with proteinase K.

[5] = system: resistant Klebsiella pneumoniae (KP) strain; assay type: cell-based; conditions: resistant (KP) strain
[6] = system: methicillin-resistant S. aureus (MRSA)
Method: (§2) The antibacterial activity of the bacterial strains was determined using the EUCAST broth microdilution method [24]. Bacterial strains were streaked into the MHA and incubated at 37 °C overnight. The initial doses were adjusted to 1024 µg/mL using a peptide concentration measurement kit (Pierce™ Quantitative Fluorometric Peptide Assay, Thermo Scientific™) and serially diluted to 0.125 µg/mL. All samples were tested in triplicate [25, 26]. The antifungal activity of the Candida species was measured in accordance with the guidelines in CLSI document M27-A3 [27].

[7] = system: Aspergillus flavus (AF); conditions: clinical strain AF1
Method: (§3) Clinically resistant bacterial strains that are classified as “ESKAPE pathogens”, including vancomycin-resistant Enterococcus faecium (VRE), methicillin-resistant S. aureus (MRSA), Klebsiella pneumoniae (KP), Acinetobacter baumannii (AB), P. aeruginosa (PA) by WHO21, multi-drug-resistant Aspergillus flavus (AF), C. albicans (CA), and C. krusei (CK), were provided by Acibadem Labmed.
as §2

[8] = system: C.albicans (CA)
Method: as §2

[9] = system: vancomycin-resistant Enterococcus faecium (VRE)
Method: as §3, §2

[10] = system: C.krusei (CK)
Method: as §2

[11] = system: Klebsiella pneumoniae (KP)
Method: as §2

[12] = system: Acinetobacter baumannii (AB)
Method: as §3, §2

[13] = system: P. aeruginosa (PA)
Method: as §2

[14] = system: ESKAPE pathogens, multi-drug-resistant A. flavus (AF), and C. albicans (CA) strains
Method: as §3, §2

[15] = system: S. aureus (ATCC 29213) inoculated wound
[16] = system: S. aureus (ATCC 29213)-infected silk suture wound; assay: Surgical site infection model; assay type: in vivo, Wistar rats; conditions: MICX40, 100 µL topically once, 3 h after treatment; p < 0.01
Method: Two McFarland S. aureus (ATCC 29213) bacteria were used for suture contamination. The 1.5 cm silk sutures (3-0) were incubated in brain heart infusion (BHI) broth at 37 °C, 150 rpm for 10 min. At the end of the incubation, the sutures were dried on sterile filter paper for 10 min. After drying, one of the sutures was placed in BHI broth, and the bacteria were measured. The number of bacteria obtained from the suture was 7 × 10^5 CFU/mL.
The rats were randomly divided into four groups consisting of seven rats per group and anesthetized with isoflurane. The back of the rat was shaved, sterilized with 70% ethanol, and two 1.5 cm full-thickness wounds were incised centrally on the dorsal midline of the neck. A 1.5 cm S. aureus (ATCC 29213)-infected 3-0 silk suture was placed into the wound incision. A staple was attached to the middle of the incision to prevent the rat from removing the infected suture. After implantation of the suture into the wound, the rats were treated topically once with 100 µL of D-TN6 (MICX40), ampicillin (MICX40), or SF. The animals were decapitated 3 h after treatment. Wound areas were dissected and placed into BHI broth. After homogenization, the bacteria on the wound were counted.

[17] = MICX40 topically twice a day for 10 days, ELISA, means ± S.E.M.

T1 sequence (P06873 106-384): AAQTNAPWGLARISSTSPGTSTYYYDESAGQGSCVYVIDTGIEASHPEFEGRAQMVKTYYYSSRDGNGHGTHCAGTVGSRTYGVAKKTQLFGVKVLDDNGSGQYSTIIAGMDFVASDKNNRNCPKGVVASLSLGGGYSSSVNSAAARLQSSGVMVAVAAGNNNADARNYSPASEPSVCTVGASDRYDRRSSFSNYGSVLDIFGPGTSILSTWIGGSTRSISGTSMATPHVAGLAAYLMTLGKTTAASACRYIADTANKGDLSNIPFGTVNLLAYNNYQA

## CC(C)C[C@@H](NC(=O)[C@H](N)CCCNC(=N)N)C(=O)N[C@H](CC(C)C)C(=O)N[C@H](CCCNC(=N)N)C(=O)N[C@H](CC(C)C)C(=O)N[C@H](CC(C)C)C(=O)N[C@H](CC(C)C)C(=O)N[C@H](CCCNC(=N)N)C(=O)N[C@H](CC(C)C)C(=O)N[C@H](CC(C)C)C(=O)N[C@H](CCCNC(=N)N)C(N)=O [D-TN6] (HELM PEPTIDE1{[dR].[dL].[dL].[dR].[dL].[dL].[dL].[dR].[dL].[dL].[dR].[am]}$$$$V2.0)
[1]
  MIC C. albicans: 0.5 µg/mL (≈ 0.349 µM)
[2]
  IC50 HaCaT: 19.64 µg/mL
[3]
  IC50 3t3: 17.58 µg/mL
[4]
  Stability toward proteinase K (HPLC): resistant to proteinase K
[4]; listed as D- TN6
  Stability toward proteinase K (HPLC): highly protease-resistant
[5]
  MIC KP1: 0.5 µg/mL (≈ 0.349 µM)
  MIC KP2: 1 µg/mL (≈ 0.697 µM)
  MIC KP8: 1 µg/mL (≈ 0.697 µM)
  MIC KP9: 0.5 µg/mL (≈ 0.349 µM)
  MIC KP13: 0.5 µg/mL (≈ 0.349 µM)
  MIC KP22: 0.5 µg/mL (≈ 0.349 µM)
  MIC KP28: 1 µg/mL (≈ 0.697 µM)
  MIC KP29: 2 µg/mL (≈ 1.39 µM)
  MIC KP35: 8 µg/mL (≈ 5.58 µM)
  MIC KP40: 2 µg/mL (≈ 1.39 µM)
  MIC KP41: 4 µg/mL (≈ 2.79 µM)
  MIC KP42: 2 µg/mL (≈ 1.39 µM)
  MIC KP46: 2 µg/mL (≈ 1.39 µM)
  MIC KP52: 2 µg/mL (≈ 1.39 µM)
[6]; clinical strain MRSA 1
  MIC MRSA 1: 0.5 µg/mL (≈ 0.349 µM)
[6]; clinical strain MRSA 2
  MIC MRSA 2: 1 µg/mL (≈ 0.697 µM)
[6]; clinical strain MRSA 3
  MIC MRSA 3: 1 µg/mL (≈ 0.697 µM)
[7]
  MIC AF1: 4 µg/mL (≈ 2.79 µM)
[8]; clinical strain CA 1
  MIC CA 1: 2 µg/mL (≈ 1.39 µM)
[8]; clinical strain CA 2
  MIC CA 2: 2 µg/mL (≈ 1.39 µM)
[8]; clinical strain CA 3
  MIC CA 3: 1 µg/mL (≈ 0.697 µM)
[9]; clinical strain VRE 1
  MIC VRE 1: 0.25 µg/mL (≈ 0.174 µM)
[9]; clinical strain VRE 2
  MIC VRE 2: 0.25 µg/mL (≈ 0.174 µM)
[10]; clinical strain CK 1
  MIC CK 1: 2 µg/mL (≈ 1.39 µM)
[10]; clinical strain CK 2
  MIC CK 2: 2 µg/mL (≈ 1.39 µM)
[10]; clinical strain CK 3
  MIC CK 3: 2 µg/mL (≈ 1.39 µM)
[11]
  MIC KP1: 4 µg/mL (≈ 2.79 µM)
  MIC KP2: 2 µg/mL (≈ 1.39 µM)
  MIC KP 3: 1 µg/mL (≈ 0.697 µM)
  MIC KP 4: 1 µg/mL (≈ 0.697 µM)
[12]; AB
  MIC range against clinical A. baumannii strains: 0.25 to 2 µg/mL
[12]; clinical strain AB1
  MIC AB1: 0.25 µg/mL (≈ 0.174 µM)
[12]; clinical strain AB2
  MIC AB2: 2 µg/mL (≈ 1.39 µM)
[13]
  MIC PA1: 1 µg/mL (≈ 0.697 µM)
  MIC PA2: 1 µg/mL (≈ 0.697 µM)
  MIC PA3: 0.5 µg/mL (≈ 0.349 µM)
  MIC PA4: 1 µg/mL (≈ 0.697 µM)
[14]
  MIC range against seven species resistant to current antibiotics: 0.25 to 4 µg/mL
[15]; rat, in vivo
  Serum CRP: N
  indicators of toxicity by ALT, AST, TB, and CRP levels in serum: did not exhibit any indicators of toxicity
  toxic alterations of liver tissue hepatocytes and stratified epithelium: did not exhibit any toxic alterations

## CC1(C)S[C@@H]2[C@H](NC(=O)[C@H](N)c3ccccc3)C(=O)N2[C@H]1C(=O)O [ampicillin]
[16]
  bacterial counts in wound versus control group: significantly reduced
[15]; [17]
  IL1-β, liver: 705.7 ± 87.07
  IL1-β, serum: 826.9 ± 105.5
  IL1-β, wound tissue: 1779 ± 45.54
  IL-6, liver: 35.51 ± 2.82
  IL-6, serum: 50.02 ± 2.04
  IL-6, wound tissue: 77.60 ± 4.77
  TNF-α, liver: 107.0 ± 8.14
  TNF-α, serum: 212.2 ± 9.02
  TNF-α, wound tissue: 225.4 ± 12.19
[15]; MICX40 topically twice a day, p < 0.01
  wound healing by day 4 versus control group: significantly accelerated
[15]; rat, in vivo
  Serum ALT: 52.4 ± 3 U/L
  Serum AST: 161.6 ± 12.8 U/L
  Serum CRP: N
  Serum TB: 0.1 mg/dL
  indicators of toxicity by ALT, AST, TB, and CRP levels in serum: did not exhibit any indicators of toxicity
